Results: patent US7741520B2, “Sulfonanilide analogs as selective aromatase modulators (SAMs)” (The Ohio State University Research Foundation, priority 2006, dated 2010)

Legend:
[1] = tested on: CYP19 mRNA expression in SK-BR-3 cells; experiment: CYP19 mRNA expression by real-time RT-PCR in SK-BR-3 cells; type: cell-based, human; conditions: 5 μM, 24 h (FIG. 14)
Description: (§1) RNA Extraction. Total RNA was isolated using the TRIzol reagent according to the manufacturer's protocol. Total RNA pellets were dissolved in DNase- and RNase-free water and quantitated using a spectrophotometer. The quality of RNA samples was determined by electrophoresis through agarose gels and staining with ethidium bromide; the 18S and 28S rRNA bands were visualized under ultraviolet light.
(§2) cDNA Synthesis. Isolated total RNA (2 μg) was treated with DNase I Amplification grade, according to the recommended protocol to eliminate any DNA before reverse transcription. Treated total RNA was denatured at 65° C. for 5 min in the presence of 2.5 ng/μL random hexamers and 0.5 mM dNTP mix. The samples were snap-cooled on ice and centrifuged briefly. Complementary DNA (cDNA) was synthesized using Superscript II reverse transcriptase according to the recommended protocol. Briefly, the reactions were conducted in the presence of 1× First-Strand Buffer and 20 mM DTT at 42° C. for 50 min and consequently inactivated at 70° C. for 15 min. The cDNA generated was used as a template in realtime PCR reactions.
Real-Time PCR. Real-time PCR was performed using the Opticon 2 system from MJ Research (Waltham, Mass.). For the CYP19 total gene the PCR reaction mixture consisted of Taqman Universal PCR Master Mix (Applied Biosystems), 600 nM of CYP19 primer (sense: 5′-TGTCTCTTTGTTCTTCATGCTATTTCTC-3′ (SEQ ID NO: 1); antisense: 5′-TCACCAATAACAGTCTGGATTTCC-3′) (SEQ ID NO: 2); 250 nM Taqman probe (6FAM 5′-TGCAAAGCACCCTAATGTTGAAGAGGCAAT-3′TAMRA) (SEQ ID NO: 3) (Invitrogen), 18S rRNA (Applied Biosystems, Foster City, Calif.), and 2.0 μL of each RT sample in a final volume of 20 μL. The Taqman probe was designed to anneal to a specific sequence of the aromatase gene between the forward and the reverse primers. Cycling conditions were 50° C. for 2 mm and 95° C. for 10 mm, followed by 50 cycles at 95° C. for 15 s and 60° C. for 1 mm.
as §1, with “extraction.” for “Extraction.”, “DNase,” for “DNase- and”
as §2, with “synthesis.” for “Synthesis.”, “real-time” for “realtime”
Real-time PCR. Real-time PCR was performed using the Opticon™ 2 system from MJ Research (Waltham, Mass.). For the CYP19 total gene the PCR reaction mixture consisted of Taqman® Universal PCR Master Mix (Applied Biosystems), 600 nM of CYP19 primer (sense: 5′-TGTCTCTTTGTTCTTCATGCTATTTCTC-3′ (SEQ ID NO: 1); antisense: 5′-TCACCAATAACAGTCTGGATTTCC-3′) (SEQ ID NO: 2); 250 nM Taqman probe (6FAM 5′-TGCAAAGCACCCTAATGTTGAAGAGGCAAT-3′TAMRA) (SEQ ID NO: 3) (Invitrogen), and 2.0 μL of each cDNA sample in a final volume of 20 μL. […]

Structure (SMILES) | melting point [°C] | CYP19 gene expression [1]
Cc1ccc(COc2cc([N+](=O)[O-])ccc2N(C)S(C)(=O)=O)cc1 [Compound 30c, N-methyl-N-[2-(4′-methylbenzyloxy)-4-nitrophenyl]methanesulfonamide] | 96 to 98 | 
CN(c1ccc([N+](=O)[O-])cc1OCc1ccc(F)cc1)S(C)(=O)=O [Compound 33c, N-methyl-N-[2-(4′-fluorobenzyloxy)-4-nitrophenyl]methanesulfonamide] | 168 to 169 | significantly decreased CYP19 gene expression
CN(c1ccc([N+](=O)[O-])cc1OCc1ccc2ccccc2c1)S(C)(=O)=O [Compound 28c, N-methyl-N-[2-(β-naphthylmethoxy) 4-nitrophenyl]methanesulfonamide] | 119 to 121 | significantly decreased CYP19 gene expression
CN(c1ccc([N+](=O)[O-])cc1OCc1ccccc1)S(C)(=O)=O [Compound 26f, N-methyl-N-(2-benzyloxy-4-nitrophenyl) methanesulfonamide] |  | significantly decreased CYP19 gene expression
CN(c1ccc([N+](=O)[O-])cc1OCc1ccccc1-c1ccccc1)S(C)(=O)=O [Compound 29c, N-methyl-N-[2-(2′-phenylbenzyloxy)-4-nitrophenyl]methanesulfonamide] | 128 to 129 | significantly decreased CYP19 gene expression
CN(c1ccc([N+](=O)[O-])cc1OCc1ccc([N+](=O)[O-])cc1)S(C)(=O)=O [Compound 27c, N-methyl-N-[2-(4′-nitrobenzyloxy)-4-nitrophenyl]methanesulfonamide] |  | significantly decreased CYP19 gene expression
